Measurements taken from paper PMC4669759 (Cell Death & Disease, 2015).

Key:
Assay type in all cases: cell-based
BxPC-3 cells = assay: Navitoclax / A-1210477 combination cell viability, BxPC-3 cells; settings: BxPC-3, 48 h
Experimental: Figure 6 A-1210477 synergizes with navitoclax to kill hematological and solid tumor cell lines. BxPC-3, EJ-1, H23, and OPM-2 cells were treated with increasing concentrations of navitoclax in the presence or absence of increasing concentrations of A-1210477 for 48 h before assessing cell viability. All data points represent the means of triplicate experiments, with error bars indicating the S.E.M. TEXT PRINTED IN THE PICTURE: A-1210477 + navitoclax: Bliss sum (BxPC-3): 716; Bliss sum (EJ-1): 464; Bliss sum (H23): 76; Bliss sum (OPM-2): 946 DOUBTS OF THE COPYIST ABOUT THIS PICTURE: The Bliss sums apply to the combination of A-1210477 and navitoclax. The picture prints the two names separately (legend heading and axis title), not as one joined label.
Adherent cell lines were seeded at 50 000 cells per well in 96-well plates and treated for 48 h with compounds diluted in half-log steps starting at 30 μM and ending at 0.001 μM. Multiple myeloma cell lines were seeded at 15 000–20 000 cells per well and treated similarly. Effects on proliferation and viability were determined using CellTiter-Glo reagent from Promega (Madison, WI, USA) according to the manufacturer's instructions. IC50 values were determined by non-linear regression analysis of the concentration response data.

MCL-1–BIM complexes = molecular target: T1, MCL-1–BIM complexes (Homo sapiens, UniProt Q07820); assay: MCL-1/BIM co-immunoprecipitation and immunoblot in H929 cells; settings: 10 μM, 4 h
T1 construct: endogenous in cells; host or cells: H929
Experimental: Figure 1 MCL-1 levels are elevated in cancer cells after treatment with MCL-1-binding small molecules. (a) H929 multiple myeloma cells were treated for 4 h with 10 μM A-1210477 before immunopreciptating MCL-1. […] A control H929 lysate was run in lane 1, and an immunoprecipitation with a non-specific antibody (Ig) was run in lane 2. The positions of molecular weight markers (specified in kiloDaltons) are indicated on the left. (b) HCC-1806 breast cancer cells were incubated with increasing concentrations of A-1210477 (0.1, 0.5, 1, 5, 10, 15, or 20 μM) or bortezomib (2, 10, or 50 nM) for 8 h before assessing MCL-1 and NOXA levels by immunoblotting. β-Actin was probed as a protein loading control. The lower graph depicts reverse transcriptase-PCR quantification of MCL1 mRNA from HCC-1806 cells treated for 8 h with similar concentrations of A-1210477. (c) HCC-1806 cells were incubated with increasing concentrations (0.1, 0.5, 1, 5, 10, and 20 μM) of A-954248, A-962653, or A-1248767 for 24 h before assessing MCL-1 and BCL-XL levels by immunoblotting. β-Actin was probed as a protein loading control
Antibodies for MCL-1-BIM co-immunoprecipitation studies were obtained from Thermo Fisher Scientific (Waltham, MA, USA; anti-MCL-1 clone RC13) and Abcam (Cambridge, MA, USA; anti-BIM clone Y36). […]

[1] = molecular target: T2, BCL-XL–BCL-XS interactions (Homo sapiens, UniProt Q07817); assay: Mammalian two-hybrid assay, BCL-XL–BCL-XS, HeLa cells; settings: 24 h, luciferase two-hybrid
T2 construct: expressed in transfected cells; host or cells: HeLa cells stably expressing a GAL4-luciferase reporter
Experimental: (a) H929 cells were treated with increasing concentrations of A-1210477 for 4 h. […] All data represent the mean of triplicate experiments, with error bars indicating the S.D. (b) Quantitative measurement of protein–protein interactions using a luciferase-based mammalian two-hybrid assay. […] All data represent the means of triplicate experiments, with error bars indicating the S.Ds.
HeLa cells stably expressing a GAL4-luciferase reporter were seeded into 10 cm dishes at 5 × 10^5 cells per plate. In all, 24 μg of a plasmid expressing both the ‘bait' and ‘prey' fusion proteins (GAL4DBD-BIM and VP16AD-BCL-2, GAL4DBD-BCL-XL and VP16AD- BCL-XS, or GAL4DBD-MCL-1 and VP16AD-NOXA, respectively) were mixed with 1.5 ml OptiMEM (Invitrogen). Separately, 24 μl Lipofectamine 2000 (Invitrogen) were mixed with 1.5 ml OptiMEM. Both solutions were incubated for 5 min (RT) and then mixed together for 20 min. Three milliliters of the mixture was added to cells in 12 ml culture medium lacking antibiotics, incubated at 37 °C for 24 h, and then transferred to 96-well plates at 20 000 cells per well. Compounds were added in half-log dilutions, starting from 1 μM and ending at 0.0001 μM for 24 h, and luciferase activity was assessed using ONE-Glo reagent (Promega). All data were plotted as the percentage of complex remaining relative to untreated controls.

T1 sequence (Q07820 whole entry, one chain of several): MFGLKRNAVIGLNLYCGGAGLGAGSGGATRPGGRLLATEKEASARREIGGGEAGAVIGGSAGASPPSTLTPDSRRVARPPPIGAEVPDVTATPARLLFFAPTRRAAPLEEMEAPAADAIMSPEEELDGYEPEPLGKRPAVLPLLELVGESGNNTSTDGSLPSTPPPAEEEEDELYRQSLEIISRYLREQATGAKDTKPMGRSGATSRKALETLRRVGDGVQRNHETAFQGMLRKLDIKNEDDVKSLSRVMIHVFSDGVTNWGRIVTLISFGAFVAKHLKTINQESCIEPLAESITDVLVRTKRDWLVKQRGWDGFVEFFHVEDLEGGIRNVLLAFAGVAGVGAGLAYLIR
T2 sequence (Q07817 whole entry, the tested form may be a part): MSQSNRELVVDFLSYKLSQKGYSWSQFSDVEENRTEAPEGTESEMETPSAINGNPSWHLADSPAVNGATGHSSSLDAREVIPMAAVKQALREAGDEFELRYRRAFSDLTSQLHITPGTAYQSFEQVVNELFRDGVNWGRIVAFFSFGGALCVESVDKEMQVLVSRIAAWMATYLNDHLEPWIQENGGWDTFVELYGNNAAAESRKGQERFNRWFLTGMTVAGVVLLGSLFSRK

`Cc1nn(C)c(COc2ccc(N3CCN(S(=O)(=O)N(C)C)CC3)cc2)c1-c1cccc2c(CCCOc3cccc4ccccc34)c(C(=O)O)n(CCN3CCOCC3)c12` [A-1210477] was tested, and the potentiation of navitoclax (BxPC-3 cells) was “substantially shifted the dose–response curve of navitoclax”, the “BIM co-immunoprecipitated with MCL-1 antibody” value (MCL-1–BIM complexes) was “reduce the amount of BIM co-immunoprecipitated” and the “effect on BCL-XL–BCL-XS interactions” value [1] was “no effect”.
